For test [1], the target named is Wild-type cruzipain (Trypanosoma cruzi, UniProt P25779). The test is described as follows: Trypanosoma cruzi cruzipain peptidase activity assay (Ki). The format is biochemical. The settings on record: read-out: Ki, inhibitors of cruzain and cruzipains. The procedure, abridged:
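Native cruzipain from T. cruzi Dm28 epimastigotes, 2.5 nM, in 100 mM sodium phosphate pH 6.75 with 1 mM EDTA and 10 mM L-cysteine, 25 °C, DMSO <1%. Rates taken from continuous fluorogenic substrate read; Ki by regression assuming reversible pure-competitive inhibition.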

The target of test [2] is T1, CPB2.8ΔCTE (Leishmania mexicana, UniProt P36400).
T1 construct: Wild-type recombinant CPB without the C-terminal extention (i.e. CPB2.8ΔCTE); Dr. Jeremy Mottram (Wellcome Centre for Molecular Parasitology, University of Glasgow)
T1 sequence (P36400 126-343, stated change not applied): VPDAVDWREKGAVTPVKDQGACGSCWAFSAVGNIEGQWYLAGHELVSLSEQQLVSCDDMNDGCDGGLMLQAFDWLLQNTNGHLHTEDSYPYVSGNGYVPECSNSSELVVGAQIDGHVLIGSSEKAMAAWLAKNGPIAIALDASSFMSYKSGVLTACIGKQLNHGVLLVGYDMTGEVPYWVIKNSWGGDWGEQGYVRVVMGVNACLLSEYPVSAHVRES
Briefly: Leishmania mexicana cysteine protease B (CPB) peptidase activity assay (Ki). The note with it: Ki, inhibitors of Leismania mexicana CPB protease. The format is biochemical. The method, then: Unless otherwise stated, all general chemicals and biochemicals were purchased from either the Sigma Chemical Company, Poole, Dorset, U.K or from Fisher Scientific UK, Loughborough, Leicestershire, U.K. Absorbance assays were carried out in flat-bottomed 96-well plates (Spectra; Greiner Bio-One Ltd., Stonehouse, Gloucestershire, U.K.) using a SpectraMax PLUS384 plate reader (Molecular Devices, Crawley, U.K.). Fluorescence high throughput assays were carried out in either 384-well microtitre plates (Corning Costar 3705 plates, Fisher Scientific) or 96-well ‘U’ bottomed Microfluor W1 microtitre plates (Thermo Labsystems, Ashford, Middlesex, U.K.). Fluorescence assays were monitored using a SpectraMax Gemini fluorescence plate reader (Molecular Devices). For substrates employing either a 7-amino-4-methylcoumarin (AMC) or a 7-amino-4-trifluoromethylcoumarin (AFC) fluorophore, assays were monitored at an excitation wavelength of 365 nm and an emission wavelength of 450 nm and the fluorescence plate reader calibrated with AMC. For substrates employing a 3-amino-benzoyl (Abz) fluorophore, assays were monitored at an excitation wavelength of 310 nm and an emission wavelength of 445 nm; the fluorescence plate reader calibrated with 3-amino-benzamide (Fluka). Unless otherwise indicated, all the peptidase substrates were purchased from Bachem UK, St Helens, Merseyside, UK. Substrates utilizing fluorescence resonance energy transfer methodology (i.e. FRET-based substrates) were synthesized at Incenta Limited using published methods (Atherton & Sheppard, Solid Phase Peptide Synthesis, IRL Press, Oxford, U.K, 1989) and employed Abz (2-aminobenzoyl) as the fluorescence donor and 3-nitro-tyrosine [Tyr(NO2)] as the fluorescence quencher (Meldal, M. and Breddam, K., Anal. Biochem, 195, 141-147, 1991). Hydroxyethylpiperazine ethanesulfonate (HEPES), tris-hydroxylmethyl aminomethane (tris) base, bis-tris-propane and all the biological detergents (e.g. CHAPS, zwittergents, etc.) were purchased from CN Biosciences UK, Beeston, Nottinghamshire, U.K. Glycerol was purchased from Amersham Pharmacia Biotech, Little Chalfont, Buckinghamshire, U.K. Stock solutions of substrate or inhibitor were made up to 10 mM in 100% dimethylsulfoxide (DMSO) (Rathburns, Glasgow, U.K.) and diluted as appropriately required. In all cases the DMSO concentration in the assays was maintained at less than 1% (vol./vol.).
Assay protocols were based on literature precedent (Table 4; Barrett, A. J., Rawlings, N. D. and Woessner, J. F., 1998, Handbook of Proteolytic Enzymes, Academic Press, London and references therein) and modified as required to suit local assay protocols. Enzyme was added as required to initiate the reaction and the activity, as judged by the change in fluorescence upon conversion of substrate to product, was monitored over time. All assays were carried out at 25±1° C.
Wild-type recombinant CPB without the C-terminal extention (i.e. CPB2.8ΔCTE; Sanderson, S. J., et. al., Biochem. J., 347, 383-388, 2000) was obtained from Dr. Jeremy Mottram (Wellcome Centre for Molecular Parasitology, The Anderson College, University of Glasgow, Glasgow, U.K.). Activity assays were carried out in 100 mM sodium acetate; pH 5.5 containing 1 mM EDTA; 200 mM NaCl and 10 mM DTT (Alves, L. C., et. al., Mol. Biochem. Parasitol, 116, 1-9, 2001) using 0.25 nM enzyme. […] The rate of conversion of substrate to product was derived from the slope of the increase in fluorescence monitored continuously over time.
The apparent inhibition constant (Ki) for each compound was determined on the basis that inhibition was reversible and occurred by a pure-competitive mechanism. The Ki values were calculated, from the dependence of enzyme activity as a function of inhibitor concentration, by direct regression analysis (Prism v 3.02) using Equation 2 (Cornish-Bowden, A., 1995.). [formula]

As usually defined, the Ki is a measure of affinity in units of concentration, obtained from inhibition or displacement.

Wild-type cruzipain, sequence (P25779 whole entry): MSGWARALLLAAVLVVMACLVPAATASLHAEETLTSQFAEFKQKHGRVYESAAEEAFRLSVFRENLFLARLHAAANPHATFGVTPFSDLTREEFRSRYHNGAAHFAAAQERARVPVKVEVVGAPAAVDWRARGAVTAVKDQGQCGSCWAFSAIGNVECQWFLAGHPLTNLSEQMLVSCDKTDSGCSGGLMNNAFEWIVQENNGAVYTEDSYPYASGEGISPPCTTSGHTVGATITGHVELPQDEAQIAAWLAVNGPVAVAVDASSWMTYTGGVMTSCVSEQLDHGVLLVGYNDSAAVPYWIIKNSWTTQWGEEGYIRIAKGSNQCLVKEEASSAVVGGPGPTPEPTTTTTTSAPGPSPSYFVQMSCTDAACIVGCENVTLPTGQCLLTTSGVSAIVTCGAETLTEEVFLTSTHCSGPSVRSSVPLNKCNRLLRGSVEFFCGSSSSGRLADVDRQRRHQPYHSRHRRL

Turning to `CC(C)C[C@H](NC(=O)c1ccc(N(C)C)cc1)C(=O)N1CC[C@@H]2[C@H]1C(=O)CN2C(=O)c1ccc(OC(F)(F)F)cc1` [Example 71, (3aR,6aS)-4-Dimethylamino-N-{(1S)-3-methyl-1-[6-oxo-(4-trifluoromethoxy-benzoyl)-hexahydro-pyrrolo[3,2-b]pyrrole-1-carbonyl]-butyl}-benzamide], the Ki in test [1] and in test [2] was under 5 µM in each case.
For the compound `CC(C)C[C@H](NC(=O)c1ccc(N(C)C)cc1)C(=O)N1CC[C@@H]2[C@H]1C(=O)CN2C(=O)c1ccccc1Cl` [Example 72, (3aR,6aS)-N-{(1S)-1-[4-(2-Chloro-benzoyl)-6-oxo-hexahydro-pyrrolo[3,2-b]pyrrole-1-carbonyl)-3-methyl-butyl}-4-dimethylamino-benzamide], the Ki in test [1] and in test [2] was under 5 µM throughout.
For the compound `CC(C)C[C@H](NC(=O)c1ccc(N(C)C)cc1)C(=O)N1CC[C@@H]2[C@H]1C(=O)CN2C(=O)c1ccncc1` [Example 82, (3aR,6aS)-4-Dimethylamino-N-{(1S)-3-methyl-1-[6-oxo-4-(pyridinecarbonyl)-hexahydro-pyrrolo[3,2-b]pyrrole-1-carbonyl]-butyl}-benzamide], the Ki in test [1] and in test [2] was under 5 µM each time.
Consider `CC(C)C[C@H](NC(=O)c1ccc(N(C)C)cc1)C(=O)N1CC[C@@H]2[C@H]1C(=O)CN2C(=O)c1cccs1` [Example 95, (3aR,6aS)-4-Dimethylamino-N-{(1S)-3-methyl-1-[6-oxo-4-(thiophene-2-carbonyl)-hexahydro-pyrrolo[3,2-b]pyrrole-1-carbonyl]-butyl}-benzamide], for which the inhibition constant (Ki) in test [1] and in test [2] was under 5 µM in each case.
In the case of `CC(C)C[C@H](NC(=O)c1ccc(N(C)C)cc1)C(=O)N1CC[C@@H]2[C@H]1C(=O)CN2C(=O)c1ccco1` [Example 96, (3aR,6aS)-4-Dimethylamino-N-{(1S)-1-[4-(furan-2-carbonyl)-6-oxo-hexahydro-pyrrolo[3,2-b]pyrrole-1-carbonyl]-3-methyl-butyl}-benzamide], the Ki in test [1] and in test [2] was under 5 µM in each case.
As for `CC(C)C[C@H](NC(=O)c1ccc(N(C)C)cc1)C(=O)N1CC[C@@H]2[C@H]1C(=O)CN2C(=O)c1ccoc1` [Example 97, (3aR,6aS)-4-Dimethylamino-N-{(1S)-1-[4-(furan-3-carbonyl)-6-oxo-hexahydro-pyrrolo[3,2-b]pyrrole-1-carbonyl]-3-methyl-butyl}-benzamide], the inhibition constant Ki in test [1] and in test [2] was under 5 µM in each case.
Consider `CC(C)C[C@H](NC(=O)c1ccc(N(C)C)cc1)C(=O)N1CC[C@@H]2[C@H]1C(=O)CN2C(=O)c1cc2ccccc2s1` [Example 100, (3aR,6aS)-N-{(1S)-1-[4-(Benzo[b]thiophene-2-carbonyl)-6-oxo-hexahydro-pyrrolo[3,2-b]pyrrole-1-carbonyl)-3-methyl-butyl}-4-dimethylamino-benzamide], for which the inhibition constant Ki in test [1] and in test [2] was under 5 µM throughout.
In the case of `CC(C)C[C@H](NC(=O)c1ccc(N(C)C)cc1)C(=O)N1CC[C@@H]2[C@H]1C(=O)CN2C(=O)c1cc2ccccc2o1` [Example 101, (3aR,6aS)-N-{(1S)-1-[4-(Benzofuran-2-carbonyl)-6-oxo-hexahydro-pyrrolo[3,2-b]pyrrole-1-carbonyl]-3-methyl-butyl}-4-dimethylamino-benzamide], the inhibitory constant (Ki) in test [1] and in test [2] was under 5 µM in each case.
Consider `CC(C)CCC(=O)N1CC(=O)[C@@H]2[C@H]1CCN2C(=O)[C@H](CC(C)C)NC(=O)c1ccc(N(C)C)cc1` [Example 105, (3aR,6aS)-4-Dimethylamino-N-{(1S)-3-methyl-1-[4-(4-methyl-pentanoyl)-6-oxo-hexahydro-pyrrolo[3,2-b]pyrrole-1-carbonyl]-butyl}-benzamide], for which the Ki in test [1] and in test [2] was under 5 µM in each case.
Take `Cc1ccc(C(=O)N2CC(=O)[C@@H]3[C@H]2CCN3C(=O)[C@H](CC(C)C)NC(=O)c2ccc(N(C)C)cc2)cc1C` [Example 114, (3aR,6aS)-4-Dimethylamino-N-{(1S)-1-[4-(3,4-dimethyl-benzoyl)-6-oxo-hexahydro-pyrrolo[3,2-b]pyrrole-1-carbonyl]-3-methyl-butyl}-benzamide]: the Ki in test [1] and in test [2] was under 5 µM throughout.
For `Cc1cc(C(=O)N2CC(=O)[C@@H]3[C@H]2CCN3C(=O)[C@H](CC(C)C)NC(=O)c2ccc(N(C)C)cc2)ccc1F` [Example 115, (3aR,6aS)-4-Dimethylamino-N-{(1S)-1-[4-(4-fluoro-3-methyl-benzoyl)-6-oxo-hexahydro-pyrrolo[3,2-b]pyrrole-1-carbonyl]-3-methyl-butyl}-benzamide], the Ki in test [1] and in test [2] was under 5 µM throughout.
As for `CC(C)C[C@H](NC(=O)c1ccc(N(C)C)cc1)C(=O)N1CC[C@@H]2[C@H]1C(=O)CN2C(=O)c1ccc(F)c(F)c1` [Example 116, (3aR,6aS)-N-{(1S)-1-[4-(3,4-Difluoro-benzoyl)-6-oxo-hexahydro-pyrrolo[3,2-b]pyrrole-1-carbonyl]-3-methyl-butyl}-4-dimethylamino-benzamide], the inhibition constant Ki in test [1] and in test [2] was under 5 µM throughout.
With `CCCCC(=O)N1CC(=O)[C@@H]2[C@H]1CCN2C(=O)[C@H](CC(C)C)NC(=O)c1ccc(N(C)C)cc1` [Example 128, (3aR,6aS)-4-Dimethylamino-N-[(1S)-3-methyl-1-(6-oxo-4-pentanoyl-hexahydro-pyrrolo[3,2-b]pyrrole-1-carbonyl)-butyl]-benzamide], the inhibition constant Ki in test [1] and in test [2] was under 5 µM throughout.
In the case of `CC(C)CC(=O)N1CC(=O)[C@@H]2[C@H]1CCN2C(=O)[C@H](CC(C)C)NC(=O)c1ccc(N(C)C)cc1` [Example 130, (3aR,6aS)-4-Dimethylamino-N-{(1S)-3-methyl-1-[4-(3-methyl-butyryl)-6-oxo-hexahydro-pyrrolo[3,2-b]pyrrole-1-carbonyl]-butyl}-benzamide], the inhibition constant Ki in test [1] and in test [2] was under 5 µM throughout.
`CC(C)C[C@H](NC(=O)c1ccc(N(C)C)cc1)C(=O)N1CC[C@@H]2[C@H]1C(=O)CN2C(=O)CC1CC1` [Example 132, (3aR,6aS)-N-{(1S)-1-[4-(2-Cyclopropyl-acetyl)-6-oxo-hexahydro-pyrrolo[3,2-b]pyrrole-1-carbonyl]-3-methyl-butyl}-4-dimethylamino-benzamide]: the inhibitory constant (Ki) in test [1] and in test [2] was under 5 µM each time.
Turning to `CC(C)C[C@H](NC(=O)c1ccc(N(C)C)cc1)C(=O)N1CC[C@@H]2[C@H]1C(=O)CN2C(=O)C1CCCC1` [Example 134, (3aR,6aS)-N-[(1S)-1-(4-Cyclopentanecarbonyl-6-oxo-hexahydro-pyrrolo[3,2-b]pyrrole-1-carbonyl)-3-methyl-butyl]-4-dimethylamino-benzamide], the inhibitory constant (Ki) in test [1] and in test [2] was under 5 µM each time.
Turning to `CCCCCCC(=O)N1CC(=O)[C@@H]2[C@H]1CCN2C(=O)[C@H](CC(C)C)NC(=O)c1ccc(N(C)C)cc1` [Example 136, (3aR,6aS)-4-Dimethylamino-N-[(1S)-1-(4-heptanoyl-6-oxo-hexahydro-pyrrolo[3,2-b]pyrrole-1-carbonyl)-3-methyl-butyl]-benzamide], the Ki in test [1] and in test [2] was under 5 µM throughout.

(Values after US20060100431A1, “Biologically active compounds” (Amura Therapeutics Limited, priority 2002, published 2006).)
